For test [1], the system named is phosphorylated ERK downstream of KRAS G12C in MIA PaCa2 cells. In words: Cell p-ERK detection experiment (HTRF) in MIA PaCa2. The format is cell-based, human. The conditions noted are these: Homo sapiens, MIA PaCa-2, 2 h, MIA PaCa2 cells, 2 hours with compound, Advance ERK phospho-T202/Y204 HTRF kit; read-out: p-ERK IC50. In outline:
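Phospho-ERK (T202/Y204) measured by HTRF after 30 min lysis and 4 h antibody incubation in MIA PaCa2 (KRAS G12C) cells, seeded at 2.5E4 per well and treated 2 h with compounds in 3.16-fold steps, final DMSO 0.1%. IC50 from a four-parameter fit of percent inhibition relative to DMSO and blank wells.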
(In TR-FRET formats the signal depends on donor and acceptor labels being close together.)

Test [2] deals with KRAS G12C mutant MIA PaCa-2 cells. Kind of test: Cell proliferation inhibition experiment, 3D spheroid, CellTiter-Glo, MIA PaCa-2. The format is cell-based, human. As to conditions: Homo sapiens, MIA PaCa-2, 120 h, 3D cell model in 384-well spheroid plate, 5 days, CellTiter-Glo; read-out: MIA-PaCa2 IC50. In outline: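 Luminescent ATP read-out (CellTiter-Glo) after 5-day compound treatment of spheroids formed overnight from 200 MIA PaCa-2 cells/well; compounds in 3.16-fold series, 0.1% DMSO final. IC50 derived by four-parameter fit of percent inhibition, normalized to DMSO control and medium blank.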
In general terms: ATP-based viability assays read luminescence as a measure of living cells.

The term IC50 denotes the concentration at which inhibition is half-maximal.

Molecules are shown by their SMILES.

As for `C=CC(=O)N1CCN2C(=O)c3c(N4CC(N(C)C)CC4(C)C)nc(-c4cccc(F)c4F)c(Cl)c3OC[C@H]2C1` (single isomer, unassigned) [Z473-2], the IC50 in test [1] was determined as 0.161 µM; in test [2] it was 0.045 µM.
`C=CC(=O)N1CCN2C(=O)c3c(N4C[C@@H](N(C)C)CC4(C)C)nc(-c4cccc(F)c4F)c(Cl)c3OC[C@H]2C1` [Z473-1, (R)-8-acryloyl-4-chloro-3-(2,3-difluorophenyl)-1-((S)-4-(dimethylamino)-2,2-dimethylpyrrolidin-1-yl)-6,6a,7,8,9,10-hexahydro-12H-pyrazino[2,1-c]pyrido[3,4-f][1,4]oxazepin-12-one]: the IC50 in test [1] came out at 0.151 µM.
For `C=CC(=O)N1CCN2C(=O)c3c(N4CC(O)CC4(C)C)nc(-c4ccccc4Cl)c(F)c3OC[C@H]2C1` (stereo partly drawn) [Z414-1, (6aR)-8-acryloyl-3-(2-chlorophenyl)-4-fluoro-1-(4-hydroxy-2,2-dimethylpyrrolidin-1-yl)-6,6a,7,8,9,10-hexahydro-12H-pyrazino[2,1-c]pyrido[3,4-f][1,4]oxazepin-12-one], the IC50 in test [1] was 0.103 µM; in test [2] it was 0.127 µM.
Consider `C=CC(=O)N1CCN2C(=O)c3c(N4C[C@H](N5CC(C#N)C5)CC4(C)C)nc(-c4ccccc4F)c(Cl)c3OC[C@H]2C1` (single isomer, unassigned) [Z637-1], for which the IC50 in test [1] is 1.12 µM; in test [2] it was 0.549 µM.
As to `C=CC(=O)N1CCN2C(=O)c3c(N4C[C@@H](N(C)C)CC4(C)C)nc(-c4ccccc4F)c(Cl)c3OC[C@H]2C1` [Z453-1, (R)-8-acryloyl-4-chloro-1-((S)-4-(dimethylamino)-2,2-dimethylpyrrolidin-1-yl)-3-(2-fluorophenyl)-6,6a,7,8,9,10-hexahydro-12H-pyrazino[2,1-c]pyrido[3,4-f][1,4]oxazepin-12-one], the IC50 in test [1] came to 0.116 µM; in test [2] it was 0.014 µM.
Taken in the same sequence, the figures for `C=CC(=O)N1CCN2C(=O)c3c(N4CCN(C)C[C@@H]4C)nc(-c4c(O)cccc4Cl)c(Cl)c3OC[C@H]2C1` [Z452, (6aR)-8-acryloyl-4-chloro-3-(2-chloro-6-hydroxyphenyl)-1-((S)-2,4-dimethylpiperazin-1-yl)-6,6a,7,8,9,10-hexahydro-12H-pyrazino[2,1-c]pyrido[3,4-f][1,4]oxazepin-12-one] were 0.034 µM and 0.0112 µM.
Take `C=CC(=O)N1CCN2C(=O)c3c(N4CCN(C)C[C@@H]4C)nc(-c4c(O)cccc4F)c(Cl)c3OC[C@H]2C1` [Z51, (6aR)-8-acryloyl-4-chloro-1-((S)-2,4-dimethylpiperazin-1-yl)-3-(2-fluoro-6-hydroxyphenyl)-6,6a,7,8,9,10-hexahydro-12H-pyrazino[2,1-c]pyrido[3,4-f][1,4]oxazepin-12-one]: the IC50 in test [1] was found to be 0.073 µM; in test [2], 0.007 µM.
Taken in the same sequence, the figures for `C=CC(=O)N1CCN2C(=O)c3c(N4CCOC[C@@H]4C)nc(-c4c(O)cccc4F)c(Cl)c3OC[C@H]2C1` [Z32] were 0.08 µM and 0.011 µM.
Consider `C=CC(=O)N1CCN2C(=O)c3c(N4CCC[C@@]4(C)C(=O)NC)nc(-c4c(O)cccc4F)c(Cl)c3OC[C@H]2C1` [Z462, (2S)-1-((6aR)-8-acryloyl-4-chloro-3-(2-fluoro-6-hydroxyphenyl)-12-oxo-6,6a,7,8,9,10-hexahydro-12H-pyrazino[2,1-c]pyrido[3,4-f][1,4]oxazepin-1-yl)-N,2-dimethylpyrrolidine-2-carboxamide], for which the IC50 was 0.165 µM in test [1] and 0.016 µM in test [2].
Regarding `C=CC(=O)N1CCN2C(=O)c3c(N4C[C@@H](N(C)CCO)CC4(C)C)nc(-c4ccccc4F)c(Cl)c3OC[C@H]2C1` (single isomer, unassigned) [Z658-1], the IC50 in test [1] turned out to be 0.031 µM.
As to `C=CC(=O)N1CCN2C(=O)c3c(N4CCN(C)C[C@@H]4C)nc(-c4ccccc4Cl)c(Cl)c3OC[C@H]2C1` [Z461, (R)-8-acryloyl-4-chloro-3-(2-chlorophenyl)-1-((S)-2,4-dimethylpiperazin-1-yl)-6,6a,7,8,9,10-hexahydro-12H-pyrazino[2,1-c]pyrido[3,4-f][1,4]oxazepin-12-one], in test [2], the IC50 amounted to 0.033 µM.
With `C=CC(=O)N1CCN2C(=O)c3c(N4C[C@@H](N5CCN(C)CC5)CC4(C)C)nc(-c4c(F)cccc4Cl)c(Cl)c3OC[C@H]2C1` (single isomer, unassigned) [Z635-1], the half-inhibitory concentration (IC50) in test [1] came to 0.014 µM.
`C=CC(=O)N1CCN2C(=O)c3c(N4CCN(C)[C@@H](C)[C@H]4C)nc(-c4ccccc4F)c(Cl)c3OC[C@H]2C1` (single isomer, unassigned) [Z465-1]: the IC50 in test [1] is 0.137 µM.
Regarding `C=CC(=O)N1CCN2C(=O)c3c(N[C@H](C)c4ccccc4)nc(-c4c(O)cccc4F)c(Cl)c3OC[C@H]2C1` [Z28, (6aR)-8-acryloyl-4-chloro-3-(2-fluoro-6-hydroxyphenyl)-1-(((R)-1-phenylethyl)amino)-6,6a,7,8,9,10-hexahydro-12H-pyrazino[2,1-c]pyrido[3,4-f][1,4]oxazepin-12-one], the IC50 in test [2] worked out at 0.15 µM.
As for `C=CC(=O)N1CCN2C(=O)c3c(N4CCN(C(=O)CC)C[C@@H]4C)nc(-c4ccccc4F)c(Cl)c3OC[C@H]2C1` [Z477, (R)-8-acryloyl-4-chloro-3-(2-fluorophenyl)-1-((S)-2-methyl-4-propionylpiperazin-1-yl)-6,6a,7,8,9,10-hexahydro-12H-pyrazino[2,1-c]pyrido[3,4-f][1,4]oxazepin-12(6aH)-one], in test [1], the IC50 turned out to be 0.061 µM.
Regarding `C=CC(=O)N1CCN2C(=O)c3c(N4C[C@H](N5CCC5)CC4(C)C)nc(-c4ccccc4F)c(Cl)c3OC[C@H]2C1` (single isomer, unassigned) [Z471-2], in test [1], the IC50 is 1.08 µM.
Turning to `C=CC(=O)N1CCN2C(=O)c3c(N4C[C@H](N5CCN(C)CC5)CC4(C)C)nc(-c4c(F)cccc4Cl)c(Cl)c3OC[C@H]2C1` (single isomer, unassigned) [Z635-2], the IC50 in test [1] came out at 0.055 µM.
The same measure, in the same setting: the same measure for `C=CC(=O)N1CCN2C(=O)c3c(N4CC[C@@H](N(C)C)C4(C)C)nc(-c4ccccc4F)c(Cl)c3OC[C@H]2C1` [Z502-1, (6aR)-8-acryloyl-4-chloro-1-(3-(dimethylamino)-2,2-dimethylpyrrolidin-1-yl)-3-(2-fluorophenyl)-6,6a,7,8,9,10-hexahydro-12H-pyrazino[2,1-c]pyrido[3,4-f][1,4]oxazepin-12(6aH)-one]: 0.196 µM.
`C=CC(=O)N1CCN2C(=O)c3c(N4CCN(C)C[C@@H]4C)nc(C#CC)c(Cl)c3OC[C@H]2C1` [Z459, (R)-8-acryloyl-4-chloro-1-((S)-2,4-dimethylpiperazin-1-yl)-3-(prop-1-yn-1-yl)-6,6a,7,8,9,10-hexahydro-12H-pyrazino[2,1-c]pyrido[3,4-f][1,4]oxazepin-12-one]: the IC50 in test [2] was over 1 µM.
Same read-out and setting: the same measure for `C=CC(=O)N1CCN2C(=O)c3c(OC4CCCN(C)C4)nc(-c4c(O)cccc4F)c(Cl)c3OC[C@H]2C1` (stereo partly drawn) [Z43, (6aR)-8-acryloyl-4-chloro-3-(2-fluoro-6-hydroxyphenyl)-1-((1-methylpiperidin-3-yl)oxy)-6,6a,7,8,9,10-hexahydro-12H-pyrazino[2,1-c]pyrido[3,4-f][1,4]oxazepin-12-one]: 0.034 µM.
Take `C=CC(=O)N1CCN2C(=O)c3c(N4CCC[C@H]4C)nc(-c4c(O)cccc4F)c(Cl)c3OC[C@H]2C1` [Z48, (6aR)-8-acryloyl-1-((R)-2-methylpyrrolidin-1-yl)-4-chloro-3-(2-fluoro-6-hydroxyphenyl)-6,6a,7,8,9,10-hexahydro-12H-pyrazino[2,1-c]pyrido[3,4-f][1,4]oxazepin-12-one]: the IC50 in test [2] was 0.028 µM.

The values above are taken from patent US20230203060A1 (GENFLEET THERAPEUTICS (SHANGHAI) INC., priority 2020, published 2023).
